Laboratory results as given in patent publication US11998544B2, “Methods of using splicing modulators” (EISAI R&D MANAGEMENT CO., LTD., priority 2018, dated 2024).

Key:
SF3b1 mutant cell lines = conditions: previously shown, U.S. Pat. No. 9,481,669 B2 and PCT/US2016/062525, cited from earlier work
CT26 syngeneic tumors = experiment: Efficacy study, mouse colon cancer syngeneic model (CT26); format: in vivo; conditions: Balb/c mice with CT26 tumors; Compound 1 at any dose level or schedule; FIG. 1A
Procedure: Efficacy Study Protocol: Mouse Colon Cancer Syngeneic Model
CT26 colon cancer cells (0.25×10^6; ATCC Cat # CRL-2638) were implanted subcutaneously into the right flank of eight-week old female Balb/c mice (Envigo) in 100 μL of PBS lacking matrigel. CT26 tumors were allowed to grow to an average of ˜100 mm^3 before animals were enrolled onto the efficacy study. Each treatment group contained 12 mice. Mice were treated with Compound 1, an anti-CTLA4 antibody (Bio X Cell Catalog Number: BE0164 (αCTLA4 9D9)), or a combination at doses and routes of administration as shown in FIG. 1. Compound 1 was formulated in a composition containing 5% ethanol and 95% methylcellulose solution (0.5% methylcellulose. The anti-CTLA4 antibody was formulated in phosphate buffer solution at pH 7.0. Tumors were measured 3 times per week for up to 19 days. Tumor volumes were calculated using the ellipsoid formula: Tumor Volume=(length×width^2)/2

[1] = in vivo; cited from earlier work

For `C/C(=C\C=C\[C@@H](C)c1ccccn1)[C@H]1OC(=O)C[C@H](O)CC[C@@](C)(O)[C@@H](OC(=O)N2CCN(C)CC2)/C=C/[C@@H]1C` [Compound 1, (2S,3S,6S,7R,10R,E)-7,10-dihydroxy-3,7-dimethyl-12-oxo-2-((R,2E,4E)-6-(pyridin-2-yl)hepta-2,4-dien-2-yl)oxacyclododec-4-en-6-yl 4-methylpiperazine-1-carboxylate], the cellular lethality (SF3b1 mutant cell lines; SF3b1 mutant cell lines) is listed as “cellular lethality in SF3b1 mutant cell lines”, the splicing modulator activity (SF3b1 mutant cell lines) is listed as “demonstrate splicing modulator activity” and the “antitumor activity (growth curves compared to vehicle treated controls)” value (CT26 syngeneic tumors) is listed as “did not result in noticeable antitumor activity”.
In the case of “Ipilimumab: fully human anti-CTLA4 antibody, an IgG1”, the plasma half-life [1] is listed as 12 to 14 days.
For “tremelimumab: fully human anti-CTLA4 antibody, an IgG2”, the plasma half-life [1] is listed as “approximately 22 days”.
